One data set relates to DIO mice. Put plainly: Subchronic effect on body weight, body composition and food intake in DIO mice. Format: in vivo, mouse. From the text:
Male C57Bl/6J mice were purchased from Jackson Lab (Bar Harbour, ME) or Taconic, (Denmark). Male Sprague Dawley rats were purchased from Taconic (Denmark). Lean animals were fed regular chow diet (Altromin 1324, Brogaarden, Denmark). Obese animals were fed a high-fat diet, 45% kcal from fat (D12492, Research Diets, New Brunswick, NJ) from the age of 4–6 weeks in order to obtain a diet induced obese (DIO) phenotype. Animals were housed under temperature and humidity-controlled conditions in a 12:12 hr light:dark cycle (lights on at 6 a.m.). Rats were housed three per cage during high fat feeding and were single housed five weeks prior to study. Mice were single housed, two per cage, with a partitioning wall where possible. All animals had ad libitum access to diet and water, except when fasted prior to experimental procedures. Animals were acclimatized to study conditions (energy expenditure cages, daily mock handling etc) at least one week prior to first dose. […] At the time of study, animals were 20–30 weeks old with a body weight of 45–50 g (DIO mice) or approximately 600 g (DIO rats).
DIO mice received s.c. injections once daily for 4–5 weeks. Animals were dosed at different times of day to allow for assessment of glucose tolerance and other metabolic parameters at same time of day but at different time points in relation to dosing. […] Body composition was assessed in conscious animals by Magnetic Resonance (MR) scanning prior to initiation of treatment and at the end of the treatment period. Steady-state plasma parameters were assessed in non-fasted animals. Additional DIO mice (n = 4) were included for verification of 24-h peptide exposure in steady state. The mice received s.c. doses daily for 2 weeks (13 days) with 3 nmol/kg NN1177; 5 nmol/kg NN1151 or 5 nmol/kg NN1359, where after plasma sampled after t = 5 h (NN1177) or 6 h (NN1151, NN1359), 10 h (all co-agonists) and 24 h (all co-agonists) post-dosing was analysed for exposure.
Analogues were tested for subchronic effect in two different set-ups. […] The Cmax and Cmin animals were included in separate treatment groups and evaluated head-to-head for glucose tolerance and additional metabolic parameters at the end of the treatment period. […] IPGTT was performed as described above, but additionally blood was sampled from vena facialis of conscious animals at t = 210 min relative to the administration of glucose for exposure analysis.
IPGTT was performed as described above.
All in vivo data are presented as mean ±SEM. […] For the comparison of NN1177, NN1151 and NN1359 on glucose tolerance, vehicle-subtracted values were used to enable comparison across studies.

The nature of a further data set: in vivo. As to conditions: rat, iv. The protocol:
Compound exposure was measured by Luminescence Oxygen Channeling Immunoassay (LOCI). […] The three reactants were combined with the analyte and formed a two-sited immuno-complex. Illumination of the complex released singlet oxygen […] from the donor beads. They were channeled into the acceptor beads and triggered a chemiluminescence response which was measured in an EnVision plate reader (PerkinElmer). The amount of light was proportional to the concentration of the analyte. As calibrators, a dilution line of the relevant analyte in rat/mouse plasma was included.
At t=0, 5 min, 10 min, 30 min, 2 h, 4 h, 8 h, 12 h, 24 h, 32 h, 48 h, 56 h, and 72 h post dosing, plasma was sampled from the sublingual plexus for analysis of plasma exposure measured by LOCI.
Plasma concentration-time profiles were analysed using non-compartmental analysis (NCA) using Phoenix WinNonlin Professional 6.3 (Pharsight, Mountain View, CA, US). Calculations were performed using full concentration-time profile values or sparse sampling concentration-time values as appropriate.

A further data set has as its target T1, Mouse GCGR (Mus musculus, UniProt Q61606).
T1 construct: a plasmid encoding either the glucagon receptor or the GLP-1 receptor from the relevant species; expressed in transfected cells
Put plainly: Receptor potency, CRE-luciferase functional assay in BHK cells. It is filed as cell-based. The settings on record: Mouse receptors, whole BHK cells, 3 h 37°C, value (95% CI). Here is the method: The binding assay was performed on cell membranes in the presence of 1% (v/v) species-specific heparin-treated pooled plasma (Bioreclamation IVT, Westbury, NY) diluted in assay buffer (50 mM HEPES supplemented with 5 mM EGTA, 5 mM MgCl2, and 0.005% (v/v) Tween 20, pH7.4). […] Cells stably expressing an individual receptor of interest were grown at 5% CO2, 37°C in DMEM (supplemented with 10% FCS, 0.5 mg/ml G418 and 0.3 mg/ml hygromycin). Membrane preparations were made from cells harvested at approximately 80% confluence, washed and homogenized in 20 mM HEPES with 0.1 mM EDTA, pH 7.4. Protein concentration was determined, and the membranes were stored at -80°C until use. The membrane binding assay was performed in a 96-well OptiPlate (PerkinElmer) in a total volume of 200 μl. Test compounds were dissolved in 80% DMSO and further diluted in assay buffer. 50 μl of diluted plasma was added to the assay plate wells followed by addition of test compounds (25 μl), cell membranes (50 μl, 0.06 mg/ml), SPA beads (20 mg/ml in assay buffer) and radioligand (60,000 cpm/well, corresponding to 0.06 nM; 2200 Ci/mmol. Each assay plate was incubated for 2 h at 30°C, centrifuged at 1500 rpm for 10 minutes and counted in a TopCount NXT instrument (PerkinElmer).
Functional assays were performed on whole cells in the absence or presence of 100% species-specific heparin-treated pooled plasma (Bioreclamation IVT). […] The cells were cultured with DMEM (supplemented with GlutaMAX, 10% FBS, 0.5 mg/ml G418 and 0.3 mg/ml hygromycin) at 5% CO2 and 37°C. At approximately 80–90% confluence, cells were washed with PBS and harvested with Versene (Life Technologies, Carlsbad, CA). The cells were counted and plated into 96-well microtiter plates coated with poly-D-Lys (Corning BioCoat) with 5,000 cells/well and thereafter incubated overnight in growth media. The next day the media was changed to assay buffer (DMEM without phenol red, supplemented with GlutaMAX, 10 mM HEPES, 1% ovalbumin and 0.1% Pluronic F-68) or to 100% plasma. In the absence of plasma, compounds were diluted in assay buffer. In assays tested with plasma, compounds were diluted in pure plasma. Buffer was removed from the plates and 50 μl of test compound dilutions was added to the plates followed by 50 μl of plasma or the same buffer used for compound dilution. The assay plates were incubated for 3 h in a 5% CO2 incubator at 37°C. The plates were then transferred to room temperature for 15 min and 100 μl Steadylite Plus reagent (PerkinElmer) was added to each well. The plates were shaken for 30 min at room temperature while protected from light after which luminescence was measured.
For the receptor binding assays, logIC50 values were calculated using non-linear regression analysis. The error estimation was reported as the 95% confidence interval. […] The calculations were performed in GraphPad Prism 6.4 (GraphPad, San Diego, CA) and error estimation was expressed as the 95% confidence interval. […] Averages, error estimation, ratios and plasma shifts were all calculated on logIC50 or logEC50 values and transformed to the anti-log values for reporting purposes.

[1] abbreviates: GCGR EC50, pM (95% CI) 0% plasma, 0% plasma.
The mark [2] stands for this setting: GCGR EC50, pM (95% CI) 100% plasma, 100% species-specific plasma.

The source of these data is paper PMC8896685 (PLoS ONE, 2022).

Numbered stars: 1 amine (or outer) side, 2 acyl side, 3 side chain; on linkers, the order of the positions; unused ones are H or OH. Square brackets hold non-standard residues; d marks the D form. Side chains are listed from the residue outwards. Peptide text beside a SMILES is read from it. * marks the point of attachment. C18 diacid = O=C(O)CCCCCCCCCCCCCCCCC(=O)*; γGlu = O=C(O)[C@H](CCC(=O)[*:2])N[*:1]; Desaminohistidyl = O=C(CCc1c[nH]cn1)*; AEEA = NCCOCCOCC(=O)O; Aib = CC(C)(N)C(=O)O

A word on the half-life: it is how long it takes for the measured level to halve. Broadly, the EC50 is the midpoint of the concentration-response curve. Higher therefore signals a need for much substance.

T1 sequence (Q61606 27-485): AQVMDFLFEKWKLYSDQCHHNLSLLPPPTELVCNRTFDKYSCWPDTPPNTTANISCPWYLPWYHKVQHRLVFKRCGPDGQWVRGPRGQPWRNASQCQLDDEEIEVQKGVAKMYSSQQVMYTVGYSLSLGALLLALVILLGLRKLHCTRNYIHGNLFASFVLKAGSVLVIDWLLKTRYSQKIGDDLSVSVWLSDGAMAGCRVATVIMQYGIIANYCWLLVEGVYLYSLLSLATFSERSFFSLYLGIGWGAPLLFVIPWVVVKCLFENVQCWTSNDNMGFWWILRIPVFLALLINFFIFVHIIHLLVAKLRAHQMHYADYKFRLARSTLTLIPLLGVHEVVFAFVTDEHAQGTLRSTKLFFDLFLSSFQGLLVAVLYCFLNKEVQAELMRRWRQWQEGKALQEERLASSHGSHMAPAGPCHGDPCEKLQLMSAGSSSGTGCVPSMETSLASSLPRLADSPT

`CC(C)C[C@H](NC(=O)[C@H](Cc1ccc(O)cc1)NC(=O)[C@H](CCCCN)NC(=O)[C@H](CO)NC(=O)[C@H](CC(C)C)NC(=O)[C@H](CC(=O)O)NC(=O)[C@H](CO)NC(=O)[C@@H](NC(=O)[C@H](Cc1ccccc1)NC(=O)[C@@H](NC(=O)CNC(=O)[C@H](CCC(N)=O)NC(=O)C(C)(C)NC(=O)[C@@H](N)Cc1c[nH]cn1)[C@@H](C)O)[C@@H](C)O)C(=O)N[C@@H](CCC(=O)O)C(=O)N[C@@H](CO)C(=O)N[C@@H](CCCCN)C(=O)N[C@@H](CCCNC(=N)N)C(=O)N[C@@H](C)C(=O)N[C@@H](CCCNC(=N)N)C(=O)N[C@@H](CCC(=O)O)C(=O)N[C@@H](Cc1ccccc1)C(=O)N[C@H](C(=O)N[C@@H](CCC(N)=O)C(=O)N[C@@H](Cc1c[nH]c2ccccc12)C(=O)N[C@@H](CC(C)C)C(=O)N[C@@H](CC(C)C)C(=O)N[C@@H](CCCCNC(=O)CC[C@H](NC(=O)CC[C@H](NC(=O)[C@H](CO)NC(=O)[C@H](CCC(=O)O)NC(=O)[C@H](CO)NC(=O)CC[C@H](NC(=O)CC[C@H](NC(=O)CCCCCCCCCCCCCCCCC(=O)O)C(=O)O)C(=O)O)C(=O)O)C(=O)O)C(=O)N[C@H](C(N)=O)[C@@H](C)O)C(C)C` [NN1177] (H-H[Aib]QGTFTSDLSKYLESKRAREFVQWLLK([γGlu-γGlu-Ser-Glu-Ser-γGlu-γGlu-C18 diacid])T-NH2): the Body weight reduction in the data set on DIO mice (3–5 nmol/kg s.c. once daily, 5 weeks) is 22–33%. This molecule showed a half-life in “in vivo” of 8 h. The EC50 was 1.96 pM at Mouse GCGR (setting [1]) and 103 pM on Mouse GCGR (setting [2]).

`CC[C@H](C)[C@H](NC(=O)[C@H](Cc1ccccc1)NC(=O)[C@H](CCC(=O)O)NC(=O)[C@H](CCCNC(=N)N)NC(=O)[C@H](C)NC(=O)[C@H](C)NC(=O)[C@H](CCC(N)=O)NC(=O)[C@H](CCC(=O)O)NC(=O)[C@H](CCC(=O)O)NC(=O)[C@H](CC(C)C)NC(=O)[C@H](Cc1ccc(O)cc1)NC(=O)[C@H](CCCCN)NC(=O)[C@H](CO)NC(=O)[C@@H](NC(=O)[C@H](CC(=O)O)NC(=O)[C@H](CO)NC(=O)[C@@H](NC(=O)[C@H](Cc1ccccc1)NC(=O)[C@@H](NC(=O)CNC(=O)[C@H](Cc1c[nH]cn1)NC(=O)C(C)(C)NC(=O)CCc1c[nH]cn1)[C@@H](C)O)[C@@H](C)O)C(C)C)C(=O)N[C@@H](C)C(=O)N[C@@H](Cc1c[nH]c2ccccc12)C(=O)N[C@@H](CC(C)C)C(=O)N[C@@H](CC(C)C)C(=O)N[C@@H](CCCCNC(=O)COCCOCCNC(=O)COCCOCCNC(=O)CC[C@H](NC(=O)CC[C@H](NC(=O)CCCCCCCCCCCCCCCCC(=O)O)C(=O)O)C(=O)O)C(=O)N[C@H](C(N)=O)[C@@H](C)O` [NN1359] (Desaminohistidyl-[Aib]HGTFTSDVSKYLEEQAAREFIAWLLK([AEEA-AEEA-γGlu-γGlu-C18 diacid])T-NH2): the Body weight loss in the data set on DIO mice (1–30 nmol/kg s.c. once daily, 4 weeks, plateau during last weeks) is 10–30%. In the data set “in vivo”, this molecule showed a half-life of 11 h. Also, the EC50 on Mouse GCGR (setting [1]) was 29.7 pM; at Mouse GCGR (setting [2]), 2540 pM.
